Test results reported in US20140107051A1, “ISOFLAVONES FOR TREATING MUCOPOLYSACCHARIDOSES” (INSTYTUT FARMACEUTYCZNY, priority 2005, published 2014).
Read-outs that look alike come from different tables or passages of the source.

What was measured:
[1] = test system: cultured human skin fibroblasts derived from normal individuals; experiment: 35S-sulphate incorporation test of glycosaminoglycans synthesis, normal cells; assay type: cell-based; settings: 30 μM; for activity at 30 µM: Homo sapiens, Skin fibroblast, read-out: Relative GAG synthesis (converted to 1 cell), Normal cells; for activity at 30 µM / Relative GAG synthesis (converted to 1 cell), Normal cells: DMSO control = 1
Protocol: (§1) The activity of isoflavones was evaluated by the measure of glycosaminoglycans synthesis in 35S-sulphate incorporation test comprising incubation of the radiolabelled 35S-sulfate into GAGs in cultured human skin fibroblasts derived from normal individuals (control) and patients affected with mucopolysaccharidose (Murata et al., Arch Biochem Biophys 2003; 413: 229-235).
(§2) The negative control was DMSO (diluent for genistein and all derivatives), the positive control—genistein. […] Experiment with each cell line has been repeated twice, and every measurement has been done twice.

[2] = test system: fibroblasts of patients affected with MPS I; experiment: 35S-sulphate incorporation test of glycosaminoglycans synthesis, MPS I cells; assay type: cell-based, human; settings: 30 μM; for activity at 30 µM: Homo sapiens, Fibroblast, read-out: Relative GAG synthesis (converted to 1 cell), MPS I; for activity at 30 µM / Relative GAG synthesis (converted to 1 cell), MPS I: DMSO control = 1
Protocol: as §1, §2

[3] = test system: cultured human skin fibroblasts derived from patients affected with mucopolysaccharidose; experiment: 35S-sulphate incorporation test of glycosaminoglycans synthesis, different human cell lines / MPS types; assay type: cell-based; settings: 30 μM; both cell lines of Table 2
Protocol: as §1, §2

[4] = Proliferation 144 h (Table 4); assay type: cell-based; settings: read-out: Proliferation 144 h IC50
MPS IIIA fibroblasts = experiment: Number of lysosomal structures by electron microscopy, MPS IIIA; assay type: cell-based, human; settings: 30 μM
MPS IIIB fibroblasts = experiment: Number of lysosomal structures by electron microscopy, MPS IIIB; assay type: cell-based, human; settings: 30 μM
[5] = test system: glycosaminoglycan (GAG) synthesis; experiment: GAG synthesis, 35S incorp. (Table 4); assay type: cell-based
[6] = read-out: Cytotoxicity 24 h LC50, 24 h
[7] = read-out: Cytotoxicity 48 h LC50, 48 h

Row | SMILES | Inhibition in relation to genistein, first symbol (normal cells) [1] | activity at 30 µM [1] [%] | activity at 30 µM [2] [%] | influence on GAG synthesis compared with genistein (in words) [3] | IC50 [4] [µM] | CC50 at 24 h (in vitro) [µM] | CC50 at 48 h (in vitro) [µM] | Number of structures per 100 μm^2 of cellular cross section ± SD, amorphous (MPS IIIA fibroblasts) [per 100 μm^2] | Number of structures per 100 μm^2 of cellular cross section ± SD, complexed (MPS IIIA fibroblasts) [per 100 μm^2] | Number of structures per 100 μm^2 of cellular cross section ± SD, lamellar (MPS IIIA fibroblasts) [per 100 μm^2] | Number of structures per 100 μm^2 of cellular cross section ± SD, total number (MPS IIIA fibroblasts) [per 100 μm^2] | Number of structures per 100 μm^2 of cellular cross section ± SD, amorphous (MPS IIIB fibroblasts) [per 100 μm^2] | Number of structures per 100 μm^2 of cellular cross section ± SD, complexed (MPS IIIB fibroblasts) [per 100 μm^2] | Number of structures per 100 μm^2 of cellular cross section ± SD, lamellar (MPS IIIB fibroblasts) [per 100 μm^2] | Number of structures per 100 μm^2 of cellular cross section ± SD, total number (MPS IIIB fibroblasts) [per 100 μm^2] | Relative GAG synthesis (converted to 1 cell), Normal cells [1] | Relative GAG synthesis (converted to 1 cell), MPS I [2] | GAG synthesis 35S incorp. [5] [%] | CC50 [6] [µM] | CC50 [7] [µM] | further results
1 | CCCCCCCCCCCCCCCC(=O)Oc1cc(O)c2c(=O)c(-c3ccc(O)cc3)coc2c1 [IFG-018] | 0/0 | 37 | 51 | stronger influence on GAG synthesis than genistein | 24.9 | 41.7 | 23.8 |  |  |  |  |  |  |  |  |  |  |  |  |  | 
2 | CC(=O)Oc1ccc(-c2coc3cc(OC(C)=O)cc(OC(C)=O)c3c2=O)cc1 [IFG-032] | 0 | 25 | 68 | an activity comparable with genistein, but only for one cell line | 17.4 | > 30 | > 30 | 0.17 ± 0.16 | 0.22 ± 0.11 | 0.14 ± 0.08 | 0.53 ± 0.19 | 0.12 ± 0.08 | 0.10 ± 0.07 | 0.17 ± 0.11 | 0.40 ± 0.20 |  |  |  |  |  | 
3 | CCC(=O)OCOc1cc(O)c2c(=O)c(-c3ccc(O)cc3)coc2c1 [IFG-036] | 0/0 |  |  | an activity comparable with genistein | 11.2 |  |  | 0.22 ± 0.11 | 0.28 ± 0.16 | 0.19 ± 0.14 | 0.73 ± 0.31 | 0.15 ± 0.18 | 0.12 ± 0.11 | 0.25 ± 0.21 | 0.50 ± 0.34 | 0.27 | 0.49 | 64 ± 21 | > 30 | > 30 | Inhibition in relation to genistein, second symbol (MPS I) [2]: 0/0
4 | CCCC[N+](CCCC)(CCCC)CCCC.O=C([O-])CCCC(=O)Oc1cc(O)c2c(=O)c(-c3ccc(O)cc3)coc2c1 [IFG-038] |  |  |  | an activity comparable with genistein | 19.9 |  |  | 0.21 ± 0.13 | 0.27 ± 0.13 | 0.32 ± 0.16 | 0.80 ± 0.24 | 0.09 ± 0.09 | 0.10 ± 0.10 | 0.21 ± 0.12 | 0.41 ± 0.18 | 0.74 | 0.74 | 55 ± 13 | > 30 | > 30 | 
5 | Cc1ccc(S(=O)(=O)OCCOCCOCCOc2cc(O)c3c(=O)c(-c4ccc(O)cc4)coc3c2)cc1 [IFG-046] | − |  |  |  |  |  |  |  |  |  |  |  |  |  |  | 1.80 | 0.49 | 118 ± 72 | 20.7 |  | Inhibition in relation to genistein, second symbol (MPS I) [2]: 0
6 | C=CCOc1cc(O)c2c(=O)c(-c3ccc(OC(=O)c4ccccc4OC(C)=O)cc3)coc2c1 [IFG-052] |  | 75 | 85 | an activity comparable with genistein, but only for one cell line | 12.2 | 15.8 | 21.5 |  |  |  |  |  |  |  |  |  |  |  |  |  | 
7 | CC(C)(C#N)c1cc(COc2ccc(-c3coc4cc(OCc5ccccc5)cc(O)c4c3=O)cc2)cc(C(C)(C)C#N)c1 [IFG-053] | 0/0 | 30 | 52 | an activity comparable with genistein | 53 | > 30 | > 30 |  |  |  |  |  |  |  |  |  |  |  |  |  | 
8 | O=C([O-])CCCC(=O)Oc1ccc(-c2coc3cc(OCc4ccccc4)cc(O)c3c2=O)cc1.[Na+] [IFG-061] | 0/0 |  |  |  |  |  |  |  |  |  |  |  |  |  |  | 0.28 | 0.46 |  | 18.8 |  | 
9 | CC(C)Oc1ccc(-c2coc3cc(O)cc(O)c3c2=O)cc1 [IFG-066] | 0/0 | 23 | 44 |  | 14.6 | > 30 | > 30 | 0.18 ± 0.19 | 0.16 ± 0.08 | 0.13 ± 0.10 | 0.48 ± 0.17 | 0.08 ± 0.06 | 0.11 ± 0.14 | 0.15 ± 0.10 | 0.34 ± 0.23 |  |  |  |  |  | 
10 | CCCC[N+](CCCC)(CCCC)CCCC.O=C([O-])COc1cc(O)c2c(=O)c(-c3ccc(O)cc3)coc2c1 [IFG-074, tetrabutylammonium[5-hydroxy-3-(4-hydroxy-phenyl)-4-oxo-4H-chromen-7-yloxy]acetate] |  |  |  |  | 27.3 |  |  |  |  |  |  |  |  |  |  |  |  | 88 ± 39 | 44.1 | 32.8 | 
